According to patent publication US10426815B2, “Prevention and treatment of itch with an MRGPR antagonist” (THE GENERAL HOSPITAL CORPORATION, priority 2015, dated 2019):
Ends that are not written are not given here.

How the values were obtained:
[1] = test system: mice (itch, scratching bouts); test: Mouse cheek model, scratching bouts; assay type: in vivo; conditions: intradermal injection into the cheek, 10 μl
Experimental: The mouse cheek model was used to evaluate scratching behavior in Mrgpr cluster Δ−/− and NK1−/− mice. Mice used for behavioral studies were 2 to 3 months old, 20-30 g. Mice were habituated for 30 minutes/day for 3 days prior and for 15 minutes on the day of the study. 10 μl of each compound were delivered by a 31G needle to the cheek. The mice were not shaved prior to injections to avoid irritation. All experiments were performed at consistent times during the day (9:00 am to 2:00 pm) and under the same conditions and in groups of at least 7 mice. The mice were videotaped in a soundproof environment minimize distraction. Recordings were scored for the number of scratching bouts that occur over 1 minute intervals during 25 minute observation periods and the investigator was not aware of the group allocation during scoring the study and behavioral analysis. A scratching bout was initiated by lifting of the hind paw to the area of injection, and ended by returning of the hind paw to the floor or to the mouth. […]
For behavioral studies, average numbers of scratching bouts were compared across groups using one-way ANOVA. Pair-wise comparisons were performed using student t test after correcting p values for multiple comparisons using the Bonferroni procedure. For DRG studies and mast cell degranulation studies, unpaired student t-test was used. Differences were considered to be statistically significant for P<0.05. Data analysis was performed using PRISM 6.

[2] = molecular target: T1, MrgX1 (human MRGPRX1) (Homo sapiens, UniProt Q96LB2); test: Calcium imaging of cells transfected with the GPCR (Table 1); assay type: cell-based; conditions: SP 10 μM (FIG. 9); chloroquine 100 μM (FIG. 7c)
T1 construct: expressed in transfected cells; host or cells: HeLa cells, pcDNA3.1(-)
T1 sequence (Q96LB2 whole entry): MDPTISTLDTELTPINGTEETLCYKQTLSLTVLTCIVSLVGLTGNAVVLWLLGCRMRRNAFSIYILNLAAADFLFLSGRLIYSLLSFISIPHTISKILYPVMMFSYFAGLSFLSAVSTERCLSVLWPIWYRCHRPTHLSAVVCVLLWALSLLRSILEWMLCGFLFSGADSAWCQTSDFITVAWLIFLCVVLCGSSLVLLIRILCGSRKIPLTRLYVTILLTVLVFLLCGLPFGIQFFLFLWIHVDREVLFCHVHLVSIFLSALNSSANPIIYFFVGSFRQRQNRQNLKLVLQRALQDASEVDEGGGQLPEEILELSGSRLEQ
Experimental: (§1) Human NK1 cDNA was obtained from LIFE Technologies, PCR cloned with Xho I-Hind III ends and cloned into pcDNA3.1(−). Mouse NK2 and NK3 expression-ready vectors were obtained from […] (Piscataway, N.J.). All other Mrgprs (human MRGPRX1, human MRGPRX2, human MRGPRX3, human MRGPRX4, mouse MrgprA2a, mouse MrgprA2b, mouse MrgprA3, mouse MrgprA4, mouse MrgprA9, mouse MrgprA10, mouse MrgprB4 and mouse MrgprB5) were cloned by PCR from genomic DNAs and inserted into pcDNA3.1 (−).
(§2) 10 μg of expression vector (human MRGPRX2, mouse MrgprA1 or NK1) and 10 μl of LIPOFECTAMINE 2000 transfection reagent were diluted into 0.5 ml of DMEM and separately left at room temperature (RT) for 5 min. They were then mixed and incubated at RT for 20 minutes prior to being added to HeLa cells. HeLa cells were grown to confluence, trypsinized and 1×10^6 cells were pelleted in a 15 ml tube by centrifugation at 1000 rpm for 5 minutes. The DMEM-LIPOFECTAMINE 2000-DNA mixture (1 ml) was then added to the cell pellet, suspended and incubated at RT for 5 minutes. 2 ml of complete DMEM with 10% FBS without antibiotics were added to the tube, mixed by inverting the tube, plated into a 96-well glass bottom plate at 50,000 cells/well, and placed in a 37° C. CO2 incubator for 3 hours. HeLa cells transfected with salmon sperm DNA were plated as a control. The medium was changed after 3 hours and left in the incubator. 24 hours after transfection, the medium in the wells was removed and 100 μl of complete DMEM containing 2 μM of FURA-2 were added to each well and left at room temperature in the dark for 1 hr.
(§3) Calcium imaging was performed immediately after loading cells with Fura-2, using a ZEISS Axiovert 200M microscope platform equipped with a flipping filter wheel for ratiometric imaging. Axiovision software, version 4.6 was used for calcium image analysis of the cells excited at 340 nm and 380 nm. Agonists were added at 15 seconds after the start of the excitation procedure. Antagonists were added five minutes before imaging with the agonists. Images were taken every 5 seconds, including at zero time, during a 90 second period or longer if required. The software later analyzed all images taken during each excitation period. Ratiometric changes were measured in 10-20 cells in each individual experiment. An average of the fluorescence of the cells in each image was calculated and plotted against time in seconds.

[3] = molecular target: T2, MrgA3 (mouse MrgprA3) (Mus musculus, UniProt Q91WW3); test: as above; assay type: cell-based; conditions: chloroquine 100 μM (FIG. 7c)
T2 construct: expressed in transfected cells; host or cells: HeLa cells, pcDNA3.1(-)
T2 sequence (Q91WW3 1-302): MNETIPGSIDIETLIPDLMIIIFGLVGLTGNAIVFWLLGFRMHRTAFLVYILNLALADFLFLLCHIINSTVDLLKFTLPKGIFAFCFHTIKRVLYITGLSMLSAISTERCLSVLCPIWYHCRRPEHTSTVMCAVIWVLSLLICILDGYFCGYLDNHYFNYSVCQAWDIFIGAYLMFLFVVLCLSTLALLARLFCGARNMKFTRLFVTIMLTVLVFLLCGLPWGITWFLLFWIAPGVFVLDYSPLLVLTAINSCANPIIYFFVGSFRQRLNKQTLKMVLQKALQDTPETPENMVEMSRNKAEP
Experimental: as §1, §2, §3

With “PAMP: PAMP peptide of the behavioral studies, length not stated (ARLDVASEFRKKWNKWALSR; ends and bridges not checked; UniProt P35318 22-41, looked up)” the “provocation of itch (scratching bouts) by the injected substance, WT mice” value [1] was “don't cause itch”.

With `CCN(CC)CCCC(C)Nc1ccnc2cc(Cl)ccc12` (stereo not shown) [Chloroquine, chloroquine] the “activation of human MRGPRX1 by the substance (in words)” value [2] was “activates” and the “activation of mouse MrgprA3 by the substance (in words)” value [3] was “activates”.

“LL-37: antimicrobial peptide that activates MRGPRX2” was tested, and the “provocation of itch (scratching bouts) by the injected substance, WT mice” value [1] was “don't cause itch”.
